Reference: publication PMC6588435 (Cell chemical biology, 2019)
Converted amounts (≈) assume the structure as drawn.

Experiments:
[1] = test system: PAS-resistant Mtb mutant folC (E153G); format: cell-based, Mycobacterium tuberculosis
[2] = test system: PAS-resistant Mtb mutant folC (I43T); format: cell-based, Mycobacterium tuberculosis
[3] = test system: PAS-resistant Mtb mutant thyX (−16 C->T); format: cell-based, Mycobacterium tuberculosis
INCA-R Mtb strains = assay: microbe, parasite or virus in culture; format: cell-based, Mycobacterium tuberculosis
Mtb = details: rising up to; ref Zhao et al., 2014; cited from earlier work

Nc1ccc(C(=O)O)c(O)c1 [PAS, para-aminosalicylic acid]
MIC, folC (E153G) [1]: 32 µg/mL (≈ 209 µM)
MIC, folC (I43T) [2]: 32 µg/mL (≈ 209 µM)
MIC, thyX (−16 C->T) [3]: 16 µg/mL (≈ 104 µM)
elevation of MIC in INCA-R strains (loss of potency) (INCA-R Mtb strains): 32 fold
MIC (INCA-R Mtb strains; Mycobacterium tuberculosis, read-out: MIC of INCA-R strains): 16 µg/mL
MIC values of PAS-resistant mutants (Mtb): up to 8 μg/mL
